Source: patent publication US20090318446A1, “4-(1H-Indol-3-yl)-Pyrimidin-2-Ylamine Derivatives and Their Use in Therapy” (Cyclacel Limited, priority 2005, published 2009)

Columns and labels:
CDK7/cyclin H = CDK7/cyclin H (Homo sapiens, UniProt P50613); experiment: CDK 7 assay; assay type: biochemical; details: Table 3; read-out: Kinase inhibition CDK7H
Protocol: CTD peptide substrate (biotinyl-Ahx-(Tyr-Ser-Pro-Thr-Ser-Pro-Ser)4-NH2; 1-2 mg/mL) and recombinant human CDK7/cyclin H, CDK9/cyclin TI, or CDK9/cyclin K (0.5-2 μg) were incubated for 45 min at 30° C. in the presence of varying amounts of test compound in 20 mM MOPS pH 7.2, 25 mM β-glycerophosphate, 5 mM EGTA, 1 mM DTT, 1 mM sodium vanadate, 15 mM MgCl2, and 100 μM ATP (containing a trace amount of ^32PγATP) in a total volume of 25 μL in a 96-well microtiter plate. The reaction was stopped by placing the plate on ice for 2 min. Avidin (50 μg) was added to each well, and the plate was incubated at room temp for 30 min. The samples were transferred to a 96-well P81 filter plate, and washed (4×200 μL per well) with 75 mM phosphoric acid. Microscint 40 scintillation liquid (50 μL) was added to each well, and the amount of ^32P incorporation for each sample was measured using a Packard Topcount microplate scintillation counter.

A2780 = experiment: MTT cytotoxicity assay, A2780; assay type: cell-based; details: Homo sapiens, after incubation
Protocol: (§1) The compounds of the invention were subjected to a standard cellular proliferation assay using human tumour cell lines obtained from the ATCC (American Type Culture Collection, 10801 University Boulevard, Manessas, Va. 20110-2209, USA). […] C.; Thomas, D. G.; Darling, J. L. Anti Cancer Drugs 1996, 7, 331-8; Loveland, B. E.; Johns, T. G.; Mackay, 1. R.; Vaillant, F.; Wang, Z. X.; Hertzog, P. J. Biochemistry International 1992, 27, 501-10). In short: cells were seeded into 96-well plates according to doubling time and incubated overnight at 37° C. […] MTT was made up as a stock of 5 mg/mL in cell media and filter-sterilised. Media was removed from cells followed by a wash with 200 μL PBS. MTT solution was then added at 20 μL per well and incubated in the dark at 37° C. for 4 h MTT solution was removed and cells again washed with 200 μL PBS. MTT dye was solubilised with 200 μL per well of DMSO with agitation. Absorbance was read at 540 nm and data analysed using curve-fitting software (GraphPad Prism version 3.00 for Windows, GrapbPad Software, San Diego Calif. USA) to determine IC50 values (concentration of test compound which inhibits cell growth by 50%).

Mia-PaCa-2 = experiment: MTT cytotoxicity assay, Mia-PaCa-2; assay type: cell-based; details: Homo sapiens, after incubation
Protocol: as §1

Flt-3 = target: T1, Flt-3 (Homo sapiens, UniProt P36888); experiment: Flt3 kinase assay; assay type: biochemical; details: Table 3; read-out: Kinase inhibition Flt3
T1 construct: purchased Upstate, Dundee, UK
T1 sequence (P36888 564-993 limits assumed): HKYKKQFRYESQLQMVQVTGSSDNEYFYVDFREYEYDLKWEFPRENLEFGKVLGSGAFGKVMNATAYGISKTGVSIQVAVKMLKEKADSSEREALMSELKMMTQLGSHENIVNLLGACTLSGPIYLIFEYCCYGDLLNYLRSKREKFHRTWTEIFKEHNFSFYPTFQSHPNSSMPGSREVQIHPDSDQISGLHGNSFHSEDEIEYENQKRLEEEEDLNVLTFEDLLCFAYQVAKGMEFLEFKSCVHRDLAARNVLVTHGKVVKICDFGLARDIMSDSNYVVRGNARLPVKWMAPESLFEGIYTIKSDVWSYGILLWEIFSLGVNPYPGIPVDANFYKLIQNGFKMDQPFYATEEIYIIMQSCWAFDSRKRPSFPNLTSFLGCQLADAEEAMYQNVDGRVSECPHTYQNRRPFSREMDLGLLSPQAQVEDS
Protocol: This was achieved by measurement of incorporation of radioactive phosphate from ATP into myelin basic protein (MBP) substrate, upon phosphorylation by commercially obtained Flt-3 Upstate, Dundee, UK). Assays were performed using 96-well plates and appropriate assay buffers (20 mM Tris, 25 mM β-glycerophosphate, 5 mM EGTA, 1 mM DTT, 1 mM sodium vanadate, pH 7.5), into which were added 5 ng of active enzyme with 0.4 mg/ml substrate (MBP). The reactions were initiated by addition of MgATP mix (15 mM MgCl2+100 μM ATP with 15-25 kBq per well of [γ-^32P]-ATP) and mixtures incubated for 30 min at 30° C. Reactions were stopped by addition of an equal volume of 75 mM aq orthophosphoric acid, followed by filtration through p81 filterplates (Whatman Polyfiltronics, Kent, UK). After washing 4 times with 75 mM aq orthophosphoric acid, plates were dried, scintillant added and incorporated radioactivity measured in a scintillation counter (TopCount, Packard Instruments, Pangbourne, Berks, UK). Compounds for kinase assay were made up as 10 mM stocks in DMSO and diluted into 10% DMSO in assay buffer. Data was analysed using curve-fitting software (XLfit version 4.0.2, IDBS, Guildford, Surrey, UK) to determine IC50 values (concentration of test compound which inhibits kinase activity by 50%).

aurora-B = target: T2, aurora-B (Homo sapiens, UniProt Q96GD4); experiment: Aurora-B (human) kinase assay; assay type: biochemical; details: Table 3; read-out: Kinase inhibition Aurora B
T2 construct: purchased Upstate, Dundee, UK
T2 sequence (Q96GD4 whole entry): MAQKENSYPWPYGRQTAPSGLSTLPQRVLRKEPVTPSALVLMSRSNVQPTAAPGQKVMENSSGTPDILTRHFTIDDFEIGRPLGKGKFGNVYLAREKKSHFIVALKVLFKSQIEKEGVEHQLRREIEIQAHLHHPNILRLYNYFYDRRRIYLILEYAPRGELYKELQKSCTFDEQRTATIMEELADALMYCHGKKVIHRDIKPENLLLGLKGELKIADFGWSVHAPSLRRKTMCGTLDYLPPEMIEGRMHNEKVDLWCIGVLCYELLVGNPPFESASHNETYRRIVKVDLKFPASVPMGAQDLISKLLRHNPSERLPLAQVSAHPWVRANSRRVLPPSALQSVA
Protocol: This was achieved by measurement of incorporation of radioactive phosphate from ATP into Kemptide substrate (LRRASLG), upon phosphorylation by commercially obtained aurora-B (human, Upstate, Dundee, UK). Assays were performed using 96-well plates and appropriate assay buffers (20 mM Tris, 25 mM β-glycerophosphate, 5 mM EGTA, 1 mM DTT, 1 mM sodium vanadate, pH 7.5), into which were added 75 ng of pre-activated enzyme with 500 μM substrate (Kemptide). The reactions were initiated by addition of MgATP mix (15 mM MgCl2+100 μM ATP with 15-25 kBq per well of [γ-^32P]-ATP) and mixtures incubated for 60 min at 30° C. Reactions were stopped by addition of an equal volume of 75 mM aq orthophosphoric acid, followed by filtration through p81 filterplates (Whatman Polyfiltronics, Kent, UK). After washing 4 times with 75 mM aq orthophosphoric acid, plates were dried, scintillant added and incorporated radioactivity measured in a scintillation counter (TopCount, Packard Instruments, Pangbourne, Berks, UK). Compounds for kinase assay were made up as 10 mM stocks in DMSO and diluted into 10% DMSO in assay buffer. Data was analysed using curve-fitting software (XLfit version 4.0.2, IDBS, Guildford, Surrey, UK) to determine IC50 values (concentration of test compound which inhibits kinase activity by 50%).
Aurora-B (human, Upstate, Dundee, UK) was pre-activated immediately prior to kinase assay in appropriate buffers (20 mM Tris, 25 mM β-glycerophosphate, 5 mM EGTA, 1 mM DTT, 1 mM sodium vanadate, pH 7.5) by incubating 15 μg of enzyme with 4 μg INCENP (Upstate, Dundee, UK) in the presence of MgATP mix (15 mM MgCl2+100 μM ATP) for 15 min at 30° C.

CDK2/cyclin E = CDK2/cyclin E (Homo sapiens, UniProt P24941); experiment: Kinase assay CDK2/cyclin E; assay type: biochemical; details: Table 3; read-out: Kinase inhibition CDK2E
Protocol: The compounds from the examples above were investigated for their ability to inhibit the enzymatic activity of various protein kinases. This was achieved by measurement of incorporation of radioactive phosphate from ATP into appropriate polypeptide substrates. Recombinant protein kinases and kinase complexes were produced or obtained commercially. Assays were performed using 96-well plates and appropriate assay buffers (typically 25 mM β-glycerophosphate, 20 mM MOPS, 5 mM EGTA, 1 mM DTT, 1 mM […], pH 7.4), into which were added 2-4 μg of active enzyme with appropriate substrates. The reactions were initiated by addition of Mg/ATP mix (15 mM MgCl2+100 μM ATP with 30-50 kBq per well of [γ-^32P]-ATP) and mixtures incubated as required at 30° C. Reactions were stopped on ice, followed by filtration through p81 filterplates or GF/C filterplates (Whatman Polyfiltronics, Kent, UK). After washing 3 times with 75 mM aq orthophosphoric acid, plates were dried, scintillant added and incorporated radioactivity measured in a scintillation counter (TopCount, Packard Instruments, Pangbourne, Berks, UK). Compounds for kinase assay were made up as 10 mM stocks in DMSO and diluted into 10% DMSO in assay buffer. Data was analysed using curve-fitting software (GraphPad Prism version 3.00 for Windows, GraphPad Software, San Diego Calif. USA) to determine IC50 values (concentration of test compound which inhibits kinase activity by 50%).

EGF-R = EGF-R (Homo sapiens, UniProt P00533); details: reported in reference [74]; cited from earlier work
EGF-R, sequence (P00533 25-1210, species assumed): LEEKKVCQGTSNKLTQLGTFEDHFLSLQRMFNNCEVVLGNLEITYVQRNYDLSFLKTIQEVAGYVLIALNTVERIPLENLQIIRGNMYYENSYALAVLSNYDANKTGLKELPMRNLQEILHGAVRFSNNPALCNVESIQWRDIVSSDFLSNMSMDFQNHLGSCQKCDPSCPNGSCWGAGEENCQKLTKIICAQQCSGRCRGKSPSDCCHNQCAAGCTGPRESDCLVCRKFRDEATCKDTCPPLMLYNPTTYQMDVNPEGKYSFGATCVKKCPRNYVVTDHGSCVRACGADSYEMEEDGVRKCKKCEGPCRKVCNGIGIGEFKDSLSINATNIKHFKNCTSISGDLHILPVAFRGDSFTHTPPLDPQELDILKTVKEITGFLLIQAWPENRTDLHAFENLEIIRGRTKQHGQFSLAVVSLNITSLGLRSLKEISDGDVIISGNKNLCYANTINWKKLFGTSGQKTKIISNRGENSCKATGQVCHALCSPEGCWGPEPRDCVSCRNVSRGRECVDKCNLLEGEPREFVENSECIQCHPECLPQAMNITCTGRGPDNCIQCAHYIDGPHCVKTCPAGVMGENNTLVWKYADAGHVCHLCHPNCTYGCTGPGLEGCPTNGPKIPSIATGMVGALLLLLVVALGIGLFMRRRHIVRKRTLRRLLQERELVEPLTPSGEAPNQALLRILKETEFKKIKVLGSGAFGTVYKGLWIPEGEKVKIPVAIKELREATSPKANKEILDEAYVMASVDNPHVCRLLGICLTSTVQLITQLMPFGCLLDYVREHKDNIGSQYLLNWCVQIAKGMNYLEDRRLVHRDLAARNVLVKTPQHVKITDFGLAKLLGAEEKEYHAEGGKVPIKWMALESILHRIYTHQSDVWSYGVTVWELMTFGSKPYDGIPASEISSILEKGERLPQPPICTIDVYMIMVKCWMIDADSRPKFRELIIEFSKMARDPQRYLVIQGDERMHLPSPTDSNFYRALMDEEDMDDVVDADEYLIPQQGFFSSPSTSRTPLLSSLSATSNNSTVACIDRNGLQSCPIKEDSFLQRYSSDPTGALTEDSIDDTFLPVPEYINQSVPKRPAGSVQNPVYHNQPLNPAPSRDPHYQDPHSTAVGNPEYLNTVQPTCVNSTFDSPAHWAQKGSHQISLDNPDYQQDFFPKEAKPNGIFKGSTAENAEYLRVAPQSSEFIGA

PKC-α = PKC-α (Homo sapiens, UniProt P17252); details: reported in reference [74]; cited from earlier work
PKC-δ = PKC-δ (Homo sapiens, UniProt Q05655); details: reported in reference [74]; cited from earlier work
PKC-δ, sequence (Q05655 whole entry): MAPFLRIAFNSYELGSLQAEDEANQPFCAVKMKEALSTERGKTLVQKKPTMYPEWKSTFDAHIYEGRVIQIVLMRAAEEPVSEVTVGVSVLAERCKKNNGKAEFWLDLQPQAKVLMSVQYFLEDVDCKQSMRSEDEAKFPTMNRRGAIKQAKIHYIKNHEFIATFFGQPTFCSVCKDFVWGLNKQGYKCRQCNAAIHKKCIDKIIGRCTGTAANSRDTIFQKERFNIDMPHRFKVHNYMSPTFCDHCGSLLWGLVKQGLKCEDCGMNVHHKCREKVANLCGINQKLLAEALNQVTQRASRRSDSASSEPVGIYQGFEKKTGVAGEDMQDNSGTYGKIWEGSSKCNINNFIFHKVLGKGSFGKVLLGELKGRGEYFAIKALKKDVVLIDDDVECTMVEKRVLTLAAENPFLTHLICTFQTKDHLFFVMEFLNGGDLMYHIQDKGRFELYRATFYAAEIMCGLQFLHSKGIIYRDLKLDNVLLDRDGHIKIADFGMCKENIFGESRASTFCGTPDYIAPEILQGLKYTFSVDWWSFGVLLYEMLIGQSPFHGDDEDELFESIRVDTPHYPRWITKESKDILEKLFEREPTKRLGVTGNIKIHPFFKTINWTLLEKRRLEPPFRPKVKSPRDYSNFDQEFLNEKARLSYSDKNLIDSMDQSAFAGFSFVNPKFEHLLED

CDK7/cyclin H, sequence (P50613 whole entry): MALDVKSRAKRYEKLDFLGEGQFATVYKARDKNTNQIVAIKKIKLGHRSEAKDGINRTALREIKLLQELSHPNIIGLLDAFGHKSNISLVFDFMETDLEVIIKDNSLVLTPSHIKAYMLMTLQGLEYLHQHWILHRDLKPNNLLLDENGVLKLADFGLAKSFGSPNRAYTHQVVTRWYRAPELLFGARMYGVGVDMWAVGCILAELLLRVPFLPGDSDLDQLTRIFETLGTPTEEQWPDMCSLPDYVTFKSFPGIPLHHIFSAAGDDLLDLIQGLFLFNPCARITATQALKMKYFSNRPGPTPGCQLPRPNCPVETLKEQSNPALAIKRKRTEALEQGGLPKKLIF
CDK7/cyclin H, sequence (P51946 whole entry partner): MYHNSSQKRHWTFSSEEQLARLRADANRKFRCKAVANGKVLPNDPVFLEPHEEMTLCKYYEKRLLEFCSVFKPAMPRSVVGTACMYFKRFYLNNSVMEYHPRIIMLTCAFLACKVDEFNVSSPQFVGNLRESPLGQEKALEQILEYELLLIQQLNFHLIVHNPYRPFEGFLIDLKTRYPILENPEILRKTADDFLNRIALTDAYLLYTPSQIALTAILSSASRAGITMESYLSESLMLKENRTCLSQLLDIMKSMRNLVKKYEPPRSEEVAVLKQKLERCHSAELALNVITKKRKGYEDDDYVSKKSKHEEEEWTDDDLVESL

| Compound | IC50 (CDK7/cyclin H) | IC50 (A2780) | IC50 (Mia-PaCa-2) | IC50 (Flt-3) | IC50 (aurora-B) | IC50 (CDK2/cyclin E) | kinase inhibition EGF-R (EGF-R) | kinase inhibition PKC-α (PKC-α) | kinase inhibition PKC-δ (PKC-δ) |
| --- | --- | --- | --- | --- | --- | --- | --- | --- | --- |
| c1ccc(CN2CCN(c3ccc(Nc4nccc(-c5c[nH]c6ccccc56)n4)cc3)CC2)cc1 [Compound 8, 4-(1H-indol-3-yl)-N-(4-benzylpiperazin-1-ylphenyl)pyrimidin-2-amine] | 6.04 µM | 5.43 µM | 5.46 µM | 0.0788 µM | 1.41 µM | – | – | – | – |
| Cc1cc(N2CCOCC2)ccc1Nc1nccc(-c2c[nH]c3ccccc23)n1 [Compound 11, 4-(1H-indol-3-yl)-N-(2-methyl-4-morpholin-4-ylphenyl)pyrimidin-2-amine] | – | 4.66 µM | 6.82 µM | 0.726 µM | – | 0.332 µM | – | – | – |
| FC(F)C(F)(F)Oc1cccc(Nc2nccc(-c3c[nH]c4ccccc34)n2)c1 [[4-(1H-indol-3-yl)-pyrimidin-2-yl]-[3-(1,1,2,2-tetrafluoro-ethoxy)-phenyl]-amine] | – | – | – | – | – | – | shown to inhibit | shown to inhibit | shown to inhibit |
